{"source": "patent US20210206758A1", "about": "“NAPHTHYRIDINES AS INTEGRIN ANTAGONISTS” (GlaxoSmithKline Intellectual Property Development Limited, priority 2016, published 2021)", "format_in_all_cases": "cell-based", "key": {"[1]": {"molecular_target": "T1, αvβ8 (Homo sapiens, UniProt P06756+P26012)", "T1 construct": "expressed in transfected cells; host or cells: K562", "assay": "Cell adhesion assay, K562-αvβ8 (LAP-b1)", "conditions": "K562-αvβ8 cells, ligand LAP-b1, 2 mM MgCl2", "description": "(§1) Reagents and methods utilised are as described [Ludbrook et al, Biochem. J. 2003, 369, 311 and Macdonald et al. ACS Med. Chem. Lett. 2014, 5, 1207-1212 for αvβ8 assay), with the following points of clarification. The following cell lines are used, with ligands in brackets: K562-αvβ3 (LAP-b1), K562-αvβ5 (Vitronectin), K562-αvβ6 (LAP-b1), K562-αvβ8 (LAP-b1), A549-αvβ1 (LAP-b1). The divalent cation used to facilitate adhesion is 2 mM MgCl2. Adhesion is quantified by cell labelling with the fluorescent dye BCECF-AM (Life Technologies), where cell suspensions at 3×10^6 cells/mL are incubated with 0.33 uL/mL of 30 mM BCECF-AM at 37° C. for 10 minutes, then 50 μL/well are dispensed into the 96-well assay plate. At the assay conclusion cells that adhered are lysed using 50 μL/well of 0.5% Triton X-100 in H2O to release fluorescence. Fluorescence intensity is detected using an Envision® plate reader (Perkin Elmer). For active antagonists in the assay, data is fitted to a 4 parameter logistic equation for IC50 determinations."}, "[2]": {"molecular_target": "T2, αvβ3 (Homo sapiens, UniProt P05106+P06756)", "T2 construct": "expressed in transfected cells; host or cells: K562", "T2 sequence (P06756 31-889 limits assumed)": "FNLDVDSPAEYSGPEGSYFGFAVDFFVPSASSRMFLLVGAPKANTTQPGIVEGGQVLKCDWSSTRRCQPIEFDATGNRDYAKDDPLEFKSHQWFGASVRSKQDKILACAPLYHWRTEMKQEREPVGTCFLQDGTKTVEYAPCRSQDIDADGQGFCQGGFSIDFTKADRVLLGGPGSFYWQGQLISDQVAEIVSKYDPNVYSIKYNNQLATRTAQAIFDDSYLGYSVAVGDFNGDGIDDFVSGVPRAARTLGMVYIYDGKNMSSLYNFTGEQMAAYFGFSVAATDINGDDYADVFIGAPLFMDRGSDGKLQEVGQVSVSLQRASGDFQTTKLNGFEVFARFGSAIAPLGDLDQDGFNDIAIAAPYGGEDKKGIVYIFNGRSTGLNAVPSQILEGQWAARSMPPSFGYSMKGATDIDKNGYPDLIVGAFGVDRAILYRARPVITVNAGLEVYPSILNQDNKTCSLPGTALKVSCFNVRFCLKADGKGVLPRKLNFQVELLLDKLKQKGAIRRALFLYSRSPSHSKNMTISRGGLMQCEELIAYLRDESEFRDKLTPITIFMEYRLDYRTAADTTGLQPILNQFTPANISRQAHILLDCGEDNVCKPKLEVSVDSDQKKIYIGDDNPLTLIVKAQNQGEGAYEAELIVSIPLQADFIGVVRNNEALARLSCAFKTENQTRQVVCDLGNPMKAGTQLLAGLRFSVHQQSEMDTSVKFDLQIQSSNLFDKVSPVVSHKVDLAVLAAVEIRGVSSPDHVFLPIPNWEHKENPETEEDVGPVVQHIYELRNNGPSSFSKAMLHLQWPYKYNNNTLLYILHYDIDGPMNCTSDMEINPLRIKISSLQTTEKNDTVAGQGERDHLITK", "T2 sequence (P06756 891-1048 partner limits assumed)": "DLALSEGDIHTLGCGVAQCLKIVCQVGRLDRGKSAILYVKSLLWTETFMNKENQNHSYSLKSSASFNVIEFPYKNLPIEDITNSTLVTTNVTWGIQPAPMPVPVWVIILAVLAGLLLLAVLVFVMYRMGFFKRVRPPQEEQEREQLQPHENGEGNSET", "T2 sequence (P05106 27-788)": "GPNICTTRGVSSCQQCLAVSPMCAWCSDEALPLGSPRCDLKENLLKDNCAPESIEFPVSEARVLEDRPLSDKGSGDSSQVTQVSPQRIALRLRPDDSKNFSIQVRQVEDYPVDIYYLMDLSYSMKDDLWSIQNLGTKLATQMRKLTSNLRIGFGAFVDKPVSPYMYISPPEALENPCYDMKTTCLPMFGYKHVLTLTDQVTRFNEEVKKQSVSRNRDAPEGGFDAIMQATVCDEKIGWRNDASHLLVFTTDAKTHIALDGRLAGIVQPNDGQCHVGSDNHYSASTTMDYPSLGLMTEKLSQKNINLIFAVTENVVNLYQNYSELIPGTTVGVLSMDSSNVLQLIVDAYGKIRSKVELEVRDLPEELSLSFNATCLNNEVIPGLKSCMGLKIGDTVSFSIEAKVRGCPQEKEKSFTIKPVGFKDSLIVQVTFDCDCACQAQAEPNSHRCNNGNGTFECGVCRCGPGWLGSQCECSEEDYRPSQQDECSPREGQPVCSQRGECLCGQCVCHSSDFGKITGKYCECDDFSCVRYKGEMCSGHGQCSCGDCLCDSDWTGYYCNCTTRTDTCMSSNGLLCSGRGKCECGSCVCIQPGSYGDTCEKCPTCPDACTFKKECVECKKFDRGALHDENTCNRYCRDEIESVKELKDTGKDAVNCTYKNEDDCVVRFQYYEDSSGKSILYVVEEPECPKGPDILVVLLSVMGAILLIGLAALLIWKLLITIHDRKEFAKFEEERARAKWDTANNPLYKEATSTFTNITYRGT", "assay": "Cell adhesion assay, K562-αvβ3 (LAP-b1)", "conditions": "K562-αvβ3 cells, ligand LAP-b1, 2 mM MgCl2", "description": "as §1"}, "[3]": {"molecular_target": "T3, αvβ5 (Homo sapiens, UniProt P06756+P18084)", "T3 construct": "expressed in transfected cells; host or cells: K562", "T3 sequence (P06756 31-889 limits assumed)": "as the sequence (P06756 31-889 limits assumed) above", "T3 sequence (P06756 891-1048 partner limits assumed)": "as the sequence (P06756 891-1048 partner limits assumed) above", "T3 sequence (P18084 24-799)": "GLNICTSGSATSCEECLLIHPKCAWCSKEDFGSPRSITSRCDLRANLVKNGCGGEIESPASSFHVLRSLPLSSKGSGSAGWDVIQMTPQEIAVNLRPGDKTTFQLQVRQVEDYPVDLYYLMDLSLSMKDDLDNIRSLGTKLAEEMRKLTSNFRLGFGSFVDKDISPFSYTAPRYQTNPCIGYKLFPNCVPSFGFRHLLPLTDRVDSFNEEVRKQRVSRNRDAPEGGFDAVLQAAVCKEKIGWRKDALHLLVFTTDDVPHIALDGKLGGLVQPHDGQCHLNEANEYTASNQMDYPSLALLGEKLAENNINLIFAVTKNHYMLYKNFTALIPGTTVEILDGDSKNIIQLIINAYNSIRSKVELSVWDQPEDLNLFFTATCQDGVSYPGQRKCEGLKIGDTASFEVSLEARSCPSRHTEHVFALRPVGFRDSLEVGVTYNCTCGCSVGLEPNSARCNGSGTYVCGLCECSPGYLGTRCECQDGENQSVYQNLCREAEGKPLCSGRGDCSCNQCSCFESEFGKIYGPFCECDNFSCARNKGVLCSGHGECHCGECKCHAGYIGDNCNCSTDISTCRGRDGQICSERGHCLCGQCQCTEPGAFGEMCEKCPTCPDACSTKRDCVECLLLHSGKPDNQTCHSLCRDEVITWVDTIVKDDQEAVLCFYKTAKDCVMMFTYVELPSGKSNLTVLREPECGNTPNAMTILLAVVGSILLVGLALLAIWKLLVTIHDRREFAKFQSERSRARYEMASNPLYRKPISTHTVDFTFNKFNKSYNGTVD", "assay": "Cell adhesion assay, K562-αvβ5 (Vitronectin)", "conditions": "K562-αvβ5 cells, ligand Vitronectin, 2 mM MgCl2", "description": "as §1"}, "[4]": {"molecular_target": "T4, αvβ1 (Homo sapiens, UniProt P05556+P06756)", "T4 construct": "host or cells: A549", "T4 sequence (P06756 31-889 limits assumed)": "as the sequence (P06756 31-889 limits assumed) above", "T4 sequence (P06756 891-1048 partner limits assumed)": "as the sequence (P06756 891-1048 partner limits assumed) above", "T4 sequence (P05556 21-798)": "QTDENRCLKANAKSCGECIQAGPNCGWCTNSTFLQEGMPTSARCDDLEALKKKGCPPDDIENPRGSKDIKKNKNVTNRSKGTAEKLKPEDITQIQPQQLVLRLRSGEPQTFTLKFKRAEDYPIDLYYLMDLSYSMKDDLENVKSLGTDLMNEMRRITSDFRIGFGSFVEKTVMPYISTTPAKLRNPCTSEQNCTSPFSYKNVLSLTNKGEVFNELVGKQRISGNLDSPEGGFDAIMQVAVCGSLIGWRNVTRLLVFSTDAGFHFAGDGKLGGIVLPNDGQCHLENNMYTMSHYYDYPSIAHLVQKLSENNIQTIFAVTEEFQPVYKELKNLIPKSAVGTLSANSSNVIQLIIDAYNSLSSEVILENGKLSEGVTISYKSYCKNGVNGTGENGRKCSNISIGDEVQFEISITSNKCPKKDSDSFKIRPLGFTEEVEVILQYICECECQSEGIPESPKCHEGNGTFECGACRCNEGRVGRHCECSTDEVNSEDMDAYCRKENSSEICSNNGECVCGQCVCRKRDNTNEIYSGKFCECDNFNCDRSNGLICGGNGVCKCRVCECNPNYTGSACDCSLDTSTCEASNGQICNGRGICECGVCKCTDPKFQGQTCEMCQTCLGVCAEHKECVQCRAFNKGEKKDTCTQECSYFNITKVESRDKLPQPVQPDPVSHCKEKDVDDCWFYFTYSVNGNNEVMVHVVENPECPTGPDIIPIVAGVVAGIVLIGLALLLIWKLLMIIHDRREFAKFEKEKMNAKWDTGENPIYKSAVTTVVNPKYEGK", "assay": "Cell adhesion assay, A549-αvβ1 (LAP-b1)", "conditions": "A549-αvβ1 cells, ligand LAP-b1, 2 mM MgCl2", "description": "as §1"}, "[5]": {"molecular_target": "T5, αvβ6 (Homo sapiens, UniProt P06756+P18564)", "T5 construct": "expressed in transfected cells; host or cells: K562", "T5 sequence (P06756 31-889 limits assumed)": "as the sequence (P06756 31-889 limits assumed) above", "T5 sequence (P06756 891-1048 partner limits assumed)": "as the sequence (P06756 891-1048 partner limits assumed) above", "T5 sequence (P18564 22-788)": "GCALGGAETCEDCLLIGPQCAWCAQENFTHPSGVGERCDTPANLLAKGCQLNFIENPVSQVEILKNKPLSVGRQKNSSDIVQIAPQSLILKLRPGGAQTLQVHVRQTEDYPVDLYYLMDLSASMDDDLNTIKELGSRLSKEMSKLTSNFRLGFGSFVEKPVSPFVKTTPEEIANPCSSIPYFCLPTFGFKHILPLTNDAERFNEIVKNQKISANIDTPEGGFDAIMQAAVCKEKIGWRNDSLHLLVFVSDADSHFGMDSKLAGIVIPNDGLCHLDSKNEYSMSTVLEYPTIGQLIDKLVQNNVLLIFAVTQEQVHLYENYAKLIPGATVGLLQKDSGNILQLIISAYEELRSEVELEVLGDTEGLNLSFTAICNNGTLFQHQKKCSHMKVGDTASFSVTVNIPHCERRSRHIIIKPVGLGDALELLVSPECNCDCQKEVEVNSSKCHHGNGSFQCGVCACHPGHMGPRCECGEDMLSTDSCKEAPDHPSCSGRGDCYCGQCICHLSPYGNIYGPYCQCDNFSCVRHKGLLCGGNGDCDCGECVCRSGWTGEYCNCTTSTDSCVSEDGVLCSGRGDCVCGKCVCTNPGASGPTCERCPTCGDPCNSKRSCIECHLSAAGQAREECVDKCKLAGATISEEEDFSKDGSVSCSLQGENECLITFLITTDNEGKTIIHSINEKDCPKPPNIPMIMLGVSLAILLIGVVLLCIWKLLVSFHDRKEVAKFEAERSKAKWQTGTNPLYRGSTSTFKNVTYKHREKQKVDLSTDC", "assay": "Cell adhesion assay, K562-αvβ6 (LAP-b1)", "conditions": "K562-αvβ6 cells, ligand LAP-b1, 2 mM MgCl2", "description": "as §1"}}}
{"smiles": "O=C(O)/C=C\\C(=O)O.O=C(O)C[C@H](CN1CC[C@@](F)(CCc2ccc3c(n2)NCCC3)C1)c1cccc(O[C@H]2CCOC2)c1", "note": "[Example 19, (S)-4-((S)-3-Fluoro-3-(2-(5,6,7,8-tetrahydro-1,8-naphthyridin-2-yl)ethyl)pyrrolidin-1-yl)-3-(3-(((S)-tetrahydrofuran-3-yl)oxy)phenyl)butanoic acid (1:1) maleate salt]", "values": [{"measurement": "αvβ8 pIC50 (mean affinity, cell Adhesion Assay)", "setting": "[1]", "result": 7.4}, {"measurement": "αvβ3 pIC50 (mean affinity, cell Adhesion Assay)", "setting": "[2]", "result": 7.3}, {"measurement": "αvβ5 pIC50 (mean affinity, cell Adhesion Assay)", "setting": "[3]", "result": 7.5}, {"measurement": "αvβ1 pIC50 (mean affinity, cell Adhesion Assay)", "setting": "[4]", "result": 6.6}, {"measurement": "αvβ6 pIC50 (mean affinity, cell Adhesion Assay)", "setting": "[5]", "result": 8.2}]}
